Data on one molecule can be found in patent US9844572B2, “Promotion of neuronal integration in neural stem cell grafts” (Life & Brain GmbH, priority 2009, dated 2017).

Experiment [1] has as its system lt-hESNSC. Description: Neurogenesis assay (differentiation in neuronal generation medium). In kind it is cell-based, human. To be noted: 10 days in neuronal generation medium with BIBF1120 (2 μg/ml). The protocol:
(§1) FIG. 9 The effect of BIBF1120 on lt-hESNSC proliferation and differentiation. The proliferative effect was measured in a BrdU proliferation assay of lt-hESNSC, either with or without BIBF1120 (a). Bars represent the percentage of BrdU positive cells, cultured for 20 hours in NSC-medium or in NSC-medium with BIBF1120 (2 μg/ml) and treated for 2.5 h with BrdU. The neurogenic effect of BIBF1120 on lt-hESNSC was studied (b). Bars represent the percentage of βIII tubulin-positive neurons in lt-hESNSC cultured for 10 days in neuronal generation medium or in neuronal generation medium with BIBF1120 (2 μg/ml).
Differentiation was studied by a neurogenesis assay. In this assay lt-hESNSC were cultured for 10 days in neuronal generation medium or in neuronal generation medium with BIBF1120 (2 μg/ml), fixed and stained for […].

For experiment [2], the system named is mitogen-activated protein kinase (MAPK) and Akt signalling pathways. The following applies: after 1-hour treatment; cell culture; cited from earlier work.
The subject of experiment [3] is lt-hESNSC. The experiment can be described thus: BrdU cell proliferation assay. The class given is cell-based, human. The following applies: BIBF1120 2 μg/ml for 20 h; BrdU 2.5 h. As to the method: as §1
For BrdU staining (FIG. 6A) 0.5% Triton X-100 in PBS was used for permeabilizing the cells. After washing, cells were incubated with 2 M HCl for 10 minutes, washed in PBS, equilibrated using 0.1 M borate buffer, washed again in PBS, followed by an incubation with the primary antibody diluted in blocking solution at room temperature over night. Staining with the secondary antibody was performed as described.
5′-bromo-T-deoxyuridine (BrdU) is a thymidine analog that incorporates into dividing cells during DNA synthesis. To determine whether BIBF1120 has an influence on the proliferation rate of lt-hESNSC, cells were cultured under neural proliferation medium with or without BIBF1120 (2 μg/ml) for 20 h. BrdU was added to the culture medium for 2.5 h. […]

Experiment [4] concerns lt-hESNSC mixed with immature neurons on hippocampal rat slice cultures. Description: Transplantation onto rat hippocampal slice cultures (migration of human neurons from mixed grafts). The class given is cell-based. The following applies: 2 μg/ml BIBF1120, day 7. As to the method:
Using a vibroslicer, 400 μm horizontal sections were generated from the hippocampus of 9-10 day-old Wistar rats. The slices included the dentate gyrus and the entorhinal and temporal cortex (Scheffler et al., 2003; Opitz et al., 2007). They were transferred onto a polyester membrane and cultivated at 35° C., 5% CO2 and saturated air humidity in an initial culture medium containing 25% normal horse serum, which was gradually replaced after 3-5 days by chemically defined, serum-free culture medium based on DMEM/F12, N2 supplement and B27 supplement. Medium was changed every other day and 5-7 days after explantation a cell suspension of 50 000 cells in a 1 μl volume was spotted onto the entorhinal cortex of the slice using an injection device.
For immunohistochemical analysis of slice cultures (FIG. 4), cultures were fixed in 4% paraformaldehyde for 4 hours and subsequently washed several times with PBS. Slices were permeabilized/blocked with 0.1% Triton X-100+10% FCS for 6 hours at 25° C. Incubation with primary antibody was for 16 hours at room temperature, followed by washing steps with PBS for 5 hours. Incubation with the secondary antibodies was for 2 hours at room temperature.
To further investigate whether endostatin can also interfere with the chemoattractive effect of neural stem/progenitor cells on immature neurons in a context closer to an in vivo situation, hippocampal rat slice culture experiments were performed. HES-NSC70+N30 were pre-incubated for 30 minutes in 30 μl Cytocon™-Buffer II with either 2 μl stock solution endostatin (n=9) or with 2 μl of the solvent of endostatin (citric-phosphate buffer) as control (n=9), and then deposited on the entorhinal cortex of hippocampal slice cultures. Cultures of pure human neurons were transplanted as positive control (n=9). The slices were further cultured for 18 days after deposition of the cells. 1 μl/ml endostatin stock solution was continuously applied every day to the slice media.
To further investigate whether BIBF1120 can also interfere with the chemoattractive effect of neural stem/progenitor cells on immature neurons, hippocampal rat slice culture experiments were performed. Lt-hESNSC mixed with purified DCX-EGFP positive neurons (30.0000 lt-hESNSC mixed with 100.000 purified neurons per μl) were pre-incubated for 30 min. in Cytocon™-Buffer II with or without 2 μg/ml BIBF1120, respectively, and then deposited on the entorhinal cortex (EC) of hippocampal slice cultures. The slices were further cultured for 7 days after deposition of the cells. 2 μg/ml BIBF1120 was continuously applied every day to the slice media.

In a further experiment the test system is human Neurons. The experiment can be described thus: Dunn chamber migration assay (chemotaxis of immature neurons). The class given is cell-based. The following applies: BIBF1120 (2 μg), 6 h recording; for chemotactic response of human neurons towards FGF2 gradient in presence of inhibitor: FGF2 200 ng/ml in outer well; for chemotactic response of human neurons towards VEGF gradient in presence of inhibitor: VEGF 200 ng/ml in outer well. The protocol: FIG. 7A Dunn chamber migration assay. Schematic representation of a direct-viewing Dunn chemotaxis chamber showing the position of the inner well, the bridge, the outer well and the overlying coverslip (a) (Zicha et al., 1991 1998, Zhang et al., 2003). Adopted from Hawksley. Calculation of the forward migration index (FMI) during a 6 h recording period. FMI values can be either positive or negative, depending on the direction in which the cell is migrating (b).
FIG. 7B Directionality analysis of cell movement using scatter plots of cell displacement (c-i). The diagrams orientate such that the position of the outer well of the chamber are vertical (y direction). Each point represents the final position of a cell at the end of the recording period of 6-h; the starting point of migration is fixed at the intersection of the two axes. As control migration of human neurons was monitored in medium only (c). For assessing chemokinesis, equal amounts of FGF2 (d) or VEGF (e) were added to both the outer and the inner wells of the chamber. Chemotaxis was tested by placing FGF2 (f) or VEGF (g) in the outer well only. Migration of human neurons treated with BFBF1120 was monitored towards a FGF2 (h) and VEGF (i) gradient.
Chemotaxis of immature neurons was directly viewed and recorded in stable concentration gradients of FGF2 (200 ng/ml) or VEGF (200 ng/ml), respectively, with or without the addition of BIBF1120 ([…]) using a Dunn chemotaxis chamber (Allen et al., 1998 1998, Zhang et al., 2003). This device is made from a Helber bacteria counting chamber by grinding a circular well in the central platform to leave a 1 mm-wide annular bridge between the inner and the outer well. Chemoattractants added to the outer well of the chamber will diffuse across the bridge to the inner well and form a linear steady gradient within ˜30 min after loading the chamber (Zicha et al., 1991; Webb et al., 1996). To study chemotaxis, the outer well of the Dunn chamber can be filled with medium containing a chemoattractant, whereas the concentric inner well is filled with medium only. Coverslips carrying the cultured cells are inverted and placed onto the chamber. Cell locomotion is recorded through the annular bridge between the concentric inner and outer well. For assessing chemokinesis, the outer and inner wells are filled with equal concentrations of the chemoattractant. A period of 6 h was chosen to assess cell migration.
To determine the efficiency of forward migration during the 6 h recording period, the FMI was calculated as the ratio of forward progress to the total path length (Foxman et al., 1999; Zhang et al.).

With `COC(=O)c1ccc2c(c1)NC(=O)/C2=C(\Nc1ccc(N(C)C(=O)CN2CCN(C)CC2)cc1)c1ccccc1` [BIBF1120, 3-Z-[1-(4-(N-((4-methyl-piperazin-1-yl)-methylcarbonyl)-N-methyl-amino)-anilino)-1-phenyl-methylene]-6-methoxycarbonyl-2-indolinone], the “differentiation (βIII tubulin-positive neurons)” value in the experiment with lt-hESNSC [1] is recorded as “not significantly influenced”. In experiment [2], the “duration of sustained pathway inhibition” value was “up to 32 hours”. The “proliferation rate (BrdU positive cells) vs untreated control” value in the experiment on lt-hESNSC [3] is “no significant difference”. Also, in experiment [4], the “migration along the z-axis” value was “easily migrated throughout the entire slice tissue”; the “total number of human neurons within 10 μm thick optical plane, bottom of the slice” value was determined as 14±7.8; the “total number of human neurons within 10 μm thick optical plane, middle of the slice” value worked out at 14.6±6.1. Also, the “number of neurons migrated beyond a 250 μm perimeter around the deposition site, increase vs control” value in experiment [4] (xy-axis) is recorded as “two-fold increase”. Besides, in experiment [4] (lt-hESNSC mixed with purified neurons), the “migration horizontally over the slice compared to control population” value is “enhanced migration and integration capacity”. Further, in the experiment with human Neurons, the “chemotactic response of human neurons towards FGF2 gradient in presence of inhibitor” value was “lost their chemotactic response” and the “chemotactic response of human neurons towards VEGF gradient in presence of inhibitor” value is listed as “lost their chemotactic response”. For the same molecule, in the experiment with human Neurons (listed as BFBF1120), the “chemotactic response of human neurons towards FGF2 gradient in presence of inhibitor” value was “loose this chemotactic response” and the “chemotactic response of human neurons towards VEGF gradient in presence of inhibitor” value is reported as “loose this chemotactic response”.
